Measured values taken from article PMC6891286, “Towards the Development of an In vivo Chemical Probe for Cyclin G Associated Kinase (GAK)” (Molecules, 2019).
pIC50, pKi: −log10 of the molar value. Where two headings read alike, the source gives them in different places.

Assays:
STK16 [1] = target: T1, STK16 (Homo sapiens, UniProt O75716); test: NAK family TR-FRET binding displacement assay; settings: NAK family FRET screening; read-out: Binding displacement assay STK16 Ki
GAK [2] = target: T2, GAK (Homo sapiens, UniProt O14976); settings: TR-FRET assay; read-out: Biochemical GAK Ki; cited from earlier work
T2 sequence (O14976 1-1311): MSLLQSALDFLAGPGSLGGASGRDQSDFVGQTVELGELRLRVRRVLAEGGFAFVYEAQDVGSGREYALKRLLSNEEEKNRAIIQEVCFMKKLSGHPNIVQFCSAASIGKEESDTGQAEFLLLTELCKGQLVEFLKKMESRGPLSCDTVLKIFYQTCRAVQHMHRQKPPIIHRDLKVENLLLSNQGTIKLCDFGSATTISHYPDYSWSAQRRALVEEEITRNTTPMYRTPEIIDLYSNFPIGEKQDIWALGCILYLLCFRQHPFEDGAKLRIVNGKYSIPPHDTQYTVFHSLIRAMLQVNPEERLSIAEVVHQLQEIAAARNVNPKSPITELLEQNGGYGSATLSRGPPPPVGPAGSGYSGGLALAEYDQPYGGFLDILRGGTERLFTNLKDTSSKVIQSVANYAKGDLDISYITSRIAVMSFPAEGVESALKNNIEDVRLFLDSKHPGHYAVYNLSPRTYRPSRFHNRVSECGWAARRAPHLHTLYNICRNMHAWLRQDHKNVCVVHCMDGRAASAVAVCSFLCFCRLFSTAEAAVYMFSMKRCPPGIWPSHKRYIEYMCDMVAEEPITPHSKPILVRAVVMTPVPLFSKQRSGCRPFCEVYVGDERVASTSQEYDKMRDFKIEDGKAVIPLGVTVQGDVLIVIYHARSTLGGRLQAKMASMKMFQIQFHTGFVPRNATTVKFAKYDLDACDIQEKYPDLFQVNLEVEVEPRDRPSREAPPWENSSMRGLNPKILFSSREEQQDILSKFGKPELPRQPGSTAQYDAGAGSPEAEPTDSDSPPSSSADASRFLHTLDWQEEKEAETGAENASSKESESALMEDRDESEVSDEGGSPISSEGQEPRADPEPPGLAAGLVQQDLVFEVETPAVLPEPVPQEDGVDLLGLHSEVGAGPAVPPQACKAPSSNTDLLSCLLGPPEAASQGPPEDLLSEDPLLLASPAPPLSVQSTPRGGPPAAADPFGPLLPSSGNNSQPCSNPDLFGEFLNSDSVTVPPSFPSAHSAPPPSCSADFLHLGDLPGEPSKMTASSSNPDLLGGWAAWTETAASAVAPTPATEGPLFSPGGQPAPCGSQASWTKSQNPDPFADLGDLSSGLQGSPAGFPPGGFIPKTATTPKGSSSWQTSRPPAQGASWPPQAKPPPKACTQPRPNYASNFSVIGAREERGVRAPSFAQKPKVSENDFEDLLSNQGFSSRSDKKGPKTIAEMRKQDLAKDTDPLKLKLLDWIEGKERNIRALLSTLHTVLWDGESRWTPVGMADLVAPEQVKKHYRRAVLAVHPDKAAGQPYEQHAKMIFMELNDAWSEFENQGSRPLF

GAK [3] = target: T2, GAK; test: TR-FRET ligand-binding displacement assay
BMP2K = BMP2K (Homo sapiens, UniProt Q9NSY1); test: NAK family TR-FRET binding displacement assay
Kinetic Solubility = format: physicochemical; settings: pH 7.4, aqueous buffer, kinetic from dmso stock, PBS pH7.4 (100 µM)
[4] = mouse liver microsome metabolic stability; settings: mouse liver microsomes; for T1/2 Ratio (+) ABT / T1/2 Ratio (−) ABT: normalized to propranolol; for T1/2 Ratio: normalization with respect to internal control (propranolol); for CLint scaled / half-life: mouse; for half-life: mean average, n = 2
Description: SGC-GAK-1 (1) was incubated with MLMs in the presence or absence of added NADPH, and the compound was quantified at various time points over an hour.
The metabolic stability of the 4-anilinoquinolines (8–13) were evaluated in MLMs (Table 1). Half-lives for metabolic clearance were normalized to propranolol in each experimental run to control for variations in the MLM preparations.

GAK [5] = target: T2, GAK; settings: nanoBRET; read-out: Live Cell GAK IC50; cited from earlier work
AAK1 [6] = target: T3, AAK1 (Homo sapiens, UniProt Q2M2I8); test: NAK family TR-FRET binding displacement assay; settings: NAK family FRET screening
GAK [7] = target: T2, GAK; test: live cell NanoBRET target engagement assay; format: cell-based; settings: nanoBRET; mean average, n = 2
GAK [8] = target: T2, GAK; test: KINOMEscan; format: binding; set-up: purchased Eurofins DiscoverX (KINOMEscan)
Description: (§1) KinomeScan Assay on 35 was performed as previously described at EuroFins DiscoverX (Fremont, CA, USA).

AAK1 [9] = target: T3, AAK1; test: KINOMEscan; format: binding; set-up: purchased Eurofins DiscoverX (KINOMEscan); settings: 35 at 1 µM; read-out: % inhibition
Description: as §1

STK16 [10] = target: T1, STK16; test: KINOMEscan; format: binding; set-up: purchased Eurofins DiscoverX (KINOMEscan); settings: 35 at 1 µM; read-out: % inhibition
Description: as §1

FLT3(ITD) = test: KINOMEscan; format: binding, human; settings: 35 at 1 µM; read-out: % inhibition
Description: as §1

FLT3(ITD,F691L) = test: KINOMEscan; format: binding, human; settings: 35 at 1 µM; read-out: % inhibition
Description: as §1

FLT3(ITD,D835V) = test: KINOMEscan; format: binding, human; settings: 35 at 1 µM; read-out: % inhibition
Description: as §1

EGFR(L747-T751del,Sins) = test: KINOMEscan; format: binding, human; settings: 35 at 1 µM; read-out: % inhibition
Description: as §1

[11] = read-out: Kinetic Solubility µM
[12] = read-out: Kinetic Solubility µg/mL
[13] = Clint (mL/min/kg) (+) ABT, (+) ABT
[14] = Clint (mL/min/kg) (−) ABT, (−) ABT
[15] = T1/2 (min), mouse liver microsomes with NADPH

T3 sequence (Q2M2I8 whole entry): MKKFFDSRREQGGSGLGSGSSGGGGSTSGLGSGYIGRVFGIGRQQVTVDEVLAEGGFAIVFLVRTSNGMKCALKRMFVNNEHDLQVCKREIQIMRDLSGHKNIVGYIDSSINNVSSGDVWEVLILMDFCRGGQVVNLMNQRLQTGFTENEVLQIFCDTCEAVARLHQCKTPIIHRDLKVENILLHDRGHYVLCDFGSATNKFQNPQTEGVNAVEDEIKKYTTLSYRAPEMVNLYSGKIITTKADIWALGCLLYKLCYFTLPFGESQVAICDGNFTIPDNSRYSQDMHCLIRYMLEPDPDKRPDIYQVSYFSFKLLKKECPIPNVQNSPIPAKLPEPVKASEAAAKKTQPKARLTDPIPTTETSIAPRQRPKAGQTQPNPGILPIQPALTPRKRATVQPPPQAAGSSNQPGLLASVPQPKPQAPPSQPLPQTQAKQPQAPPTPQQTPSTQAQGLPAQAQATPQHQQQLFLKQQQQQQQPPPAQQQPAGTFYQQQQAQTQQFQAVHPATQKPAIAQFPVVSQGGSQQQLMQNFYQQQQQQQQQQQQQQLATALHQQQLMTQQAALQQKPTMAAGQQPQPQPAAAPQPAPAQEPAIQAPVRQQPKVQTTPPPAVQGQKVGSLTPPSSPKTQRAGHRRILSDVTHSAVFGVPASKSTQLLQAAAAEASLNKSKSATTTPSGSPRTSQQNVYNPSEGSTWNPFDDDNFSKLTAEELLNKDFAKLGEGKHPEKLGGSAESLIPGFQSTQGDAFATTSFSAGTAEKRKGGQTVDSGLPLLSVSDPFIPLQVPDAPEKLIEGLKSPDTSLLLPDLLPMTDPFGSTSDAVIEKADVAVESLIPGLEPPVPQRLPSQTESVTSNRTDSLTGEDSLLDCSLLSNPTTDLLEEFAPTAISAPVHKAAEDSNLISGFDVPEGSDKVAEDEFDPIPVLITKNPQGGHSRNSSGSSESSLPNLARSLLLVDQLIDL
T1 sequence (O75716 whole entry): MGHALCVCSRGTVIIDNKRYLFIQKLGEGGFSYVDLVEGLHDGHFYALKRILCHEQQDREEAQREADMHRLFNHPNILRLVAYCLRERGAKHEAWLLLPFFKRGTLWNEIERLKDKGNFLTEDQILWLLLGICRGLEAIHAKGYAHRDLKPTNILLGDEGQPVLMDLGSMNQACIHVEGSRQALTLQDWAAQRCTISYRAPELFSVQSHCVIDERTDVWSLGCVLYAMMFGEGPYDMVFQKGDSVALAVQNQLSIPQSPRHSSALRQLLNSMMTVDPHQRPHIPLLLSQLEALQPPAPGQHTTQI
Sequence of BMP2K (Q9NSY1 whole entry): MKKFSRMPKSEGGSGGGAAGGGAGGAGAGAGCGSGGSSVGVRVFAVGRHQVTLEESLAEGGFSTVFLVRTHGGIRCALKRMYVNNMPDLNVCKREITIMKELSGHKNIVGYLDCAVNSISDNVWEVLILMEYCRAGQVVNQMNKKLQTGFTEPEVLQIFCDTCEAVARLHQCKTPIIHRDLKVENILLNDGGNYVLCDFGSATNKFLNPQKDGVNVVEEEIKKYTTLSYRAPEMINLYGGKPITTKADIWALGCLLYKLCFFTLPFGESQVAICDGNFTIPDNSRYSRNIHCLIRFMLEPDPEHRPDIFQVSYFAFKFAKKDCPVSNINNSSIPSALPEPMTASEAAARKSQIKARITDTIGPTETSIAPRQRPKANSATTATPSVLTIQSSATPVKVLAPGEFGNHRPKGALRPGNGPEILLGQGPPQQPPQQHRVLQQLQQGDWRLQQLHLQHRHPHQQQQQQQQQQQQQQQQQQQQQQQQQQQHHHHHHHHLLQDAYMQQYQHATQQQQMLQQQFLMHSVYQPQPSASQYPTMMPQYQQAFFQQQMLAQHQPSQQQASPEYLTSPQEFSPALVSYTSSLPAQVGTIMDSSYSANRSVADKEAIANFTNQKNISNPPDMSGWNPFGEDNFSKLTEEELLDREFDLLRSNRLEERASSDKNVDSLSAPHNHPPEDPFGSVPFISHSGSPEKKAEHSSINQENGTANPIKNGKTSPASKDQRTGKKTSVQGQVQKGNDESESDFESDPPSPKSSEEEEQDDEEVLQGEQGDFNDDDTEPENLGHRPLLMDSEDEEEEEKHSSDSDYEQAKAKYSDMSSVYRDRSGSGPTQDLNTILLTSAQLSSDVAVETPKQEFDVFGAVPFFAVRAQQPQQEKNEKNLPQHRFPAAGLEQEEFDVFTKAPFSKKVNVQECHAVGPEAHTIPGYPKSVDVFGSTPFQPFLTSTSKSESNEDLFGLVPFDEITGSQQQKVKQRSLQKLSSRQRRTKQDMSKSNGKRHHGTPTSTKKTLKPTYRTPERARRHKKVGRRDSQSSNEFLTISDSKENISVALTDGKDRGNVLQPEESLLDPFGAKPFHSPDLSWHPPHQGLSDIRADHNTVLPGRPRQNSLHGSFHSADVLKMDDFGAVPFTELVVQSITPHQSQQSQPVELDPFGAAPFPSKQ

Row | SMILES | pKi (STK16 [1]) | pKi (BMP2K) | solubility kinetic (Kinetic Solubility; [11]) | solubility kinetic (Kinetic Solubility; [12]) | T1/2 Ratio (+) ABT ([4]; (+) ABT) | T1/2 Ratio (−) ABT ([4]; (−) ABT) | T1/2 Ratio [4] | CLint scaled [4, 13] | CLint scaled [4, 14] | half-life ([4]; T1/2 (min) (+) ABT, (+) ABT) | half-life ([4]; T1/2 (min) (−) ABT, (−) ABT) | half-life [4, 15] | pKi (AAK1 [6]) | also measured
1 | COc1cc2nccc(Nc3cc(OC)c(OC)c(OC)c3)c2cc1OC [Compound 8] | < 4.00 | 4.20 | 128 µM | 47.6 µg/mL | 14.7 | 1.3 | 1.6 | < 28 mL/min/kg | 320 mL/min/kg | > 200 min | 18 min | 12.2 min | 4.55 | pKi (GAK [2]): 9.27; pKi (GAK [3]; NAK family FRET screening, read-out: Binding displacement assay GAK Ki): 9.27; pIC50 (GAK [5]): 7.60
2 | Brc1ccc2nccc(Nc3ccc4cn[nH]c4c3)c2c1 [Compound 35, 6-Bromo-N-(1H-indazol-6-yl)quinolin-4-amine] | 5.13 | 5.19 | 12.3 µM | 4.2 µg/mL | 17.5 | 9.8 | 9.8 | 35 mL/min/kg | 120 mL/min/kg | 170 min | 46 min | 45.6 min | 5.68 | pIC50 (GAK [7]): 5.85; pKi (GAK [3]; TR-FRET assay, read-out: Biochemical GAK Ki): 7.70; activity at 1 µM (GAK [8]; 35 at 1 µM, read-out: % inhibition): 10%; inhibition at 1 µM (GAK [8]; KinomeScan, screened at 1 μM, read-out: kinases inhibited at 1 μM: GAK): 90%; activity at 1 µM (AAK1 [9]): 100%; activity at 1 µM (STK16 [10]): 98%; T1/2 ratios fold higher than 9 [4]: ≥ 2 fold; activity (FLT3(ITD)): 97%; activity (FLT3(ITD,F691L)): 100%; activity (FLT3(ITD,D835V)): 100%; activity (EGFR(L747-T751del,Sins)): 100%
